Results published in patent US20240024093A1, “INTRAOCULAR DRUG DELIVERY SYSTEMS AND METHODS OF USE” (SpyGlass Pharma, Inc., priority 2022, published 2024).

Columns and labels:
[1] = Bimatoprost sampled in the aqueous humor of dogs over time (FIG. 9); type: in vivo
Description: FIG. 9 is an exemplary graph of a therapeutic agent delivered to the aqueous humor of an eye of canines versus time.
In this example, there was a low dose group of dogs (Grp 1), a mid-dose group of dogs (Grp 2), a high dose group of dogs (Grp 3), and a placebo group of dogs (Grp 4).

[2] = daily release or elution of Bimatoprost in vitro versus time (FIG. 8); type: physicochemical; settings: four-hundred-day study
Description: FIG. 8 is an exemplary graph of daily release or elution of a pharmaceutical or therapeutic agent in vitro versus time. […] The target release rate in this study on rabbits was 0.050 to 0.100 micrograms per day.

level of Bimatoprost in the aqueous humor (elution kinetics) ([1]; low dose (Grp 1), mid-dose (Grp 2), high dose (Grp 3) groups, study period of about one hundred thirteen days): zero-order elution rate
mean measurements of Bimatoprost in the aqueous humor (dose dependence) ([1]; low, mid and high dose groups, FIG. 9): increased with the higher doses
average release rate [2]: less than 0.100 micrograms per day
SMILES: CCNC(=O)CCC/C=C\C[C@@H]1[C@@H](/C=C/[C@@H](O)CCc2ccccc2)[C@H](O)C[C@@H]1O [Bimatoprost]
release rate over the study (release kinetics) [2]: essentially a zero-order and/or a steady state elution rate
